Test systems include HOP-92 NSCLC; UACC-257 melanoma; MOLT-4 leukemia; MCF7 breast; BT-549 breast; PC-3 prostate; MALME-3M melanoma; HOP-62 NSCLC; HCC-2998 colon; OVCAR-3 ovarian.
Assay in all cases: growth of human tumour cells (NCI), 48 h

Molecules are shown by their SMILES. “And” between values parts separate entries of the source, which are not always exact repeats. Equal values may be shown once.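 Test compounds were applied to cells in 96-well plates for 48 hours at 5 doses. At the GI50, growth is halved. TGI: concentration producing complete growth inhibition.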 Where only a bound is given, the exact number is not on record here.

With `O=C(O)c1ccc2c(c1)nc(Nc1cccc(Cl)c1)c1ccncc12`, the GI50 with HOP-92 NSCLC was 0.325 µM and 0.445 µM; in the assay with UACC-257 melanoma it was 3.88 µM and 2.68 µM; with MOLT-4 leukemia, 3.07 µM and 4.6 µM; with MCF7 breast, 2.22 µM and 2.57 µM; with BT-549 breast, 2.48 µM and 2.29 µM; in the assay on PC-3 prostate it was 2.88 µM and 3.57 µM. Also, the GI50 in the assay with MALME-3M melanoma is 1.91 µM and 2.68 µM; with HOP-62 NSCLC, 3.3 µM and 3.38 µM; with HCC-2998 colon, 2.53 µM and 4.02 µM; with OVCAR-3 ovarian, 1.2 µM and 1.68 µM. Also, the TGI in the assay with HOP-92 NSCLC is 3.77 µM and 4.06 µM; in the assay on UACC-257 melanoma, 20.3 µM and > 10 µM; in the assay with MOLT-4 leukemia, 7.4 µM and > 10 µM; with MCF7 breast, above 100 µM; in the assay with BT-549 breast, 10.9 µM and 8.33 µM; in the assay with PC-3 prostate it was 22 µM and > 10 µM. The TGI in the assay with MALME-3M melanoma is 7.71 µM and > 10 µM; in the assay with HOP-62 NSCLC, 25.5 µM and > 10 µM; with HCC-2998 colon, 15.1 µM and > 10 µM; with OVCAR-3 ovarian, 4.15 µM and > 10 µM.
With `O=C1/C(=C/c2ccccc2)CN(C(=O)OCc2ccccc2)C/C1=C\c1ccccc1`, the TGI in the assay with HOP-92 NSCLC was above 100 µM; in the assay on UACC-257 melanoma it was 28.3 µM; in the assay with MOLT-4 leukemia, 7.49 µM and 19 µM; in the assay with MCF7 breast it was 37.2 µM; in the assay with BT-549 breast, 33.2 µM; in the assay with PC-3 prostate, 57.7 µM. The TGI with MALME-3M melanoma is above 46.4 µM; in the assay with HOP-62 NSCLC it was 39.9 µM; in the assay on HCC-2998 colon, 18.3 µM; in the assay on OVCAR-3 ovarian, 10 µM. The GI50 with UACC-257 melanoma was 9.19 µM; with MOLT-4 leukemia it was 2.18 µM.
On to `O=[N+]([O-])c1ccc2ncccc2c1Cl`, for which the GI50 in the assay on HOP-92 NSCLC is 6.57 µM; with UACC-257 melanoma, 7.62 µM; with MOLT-4 leukemia, 3.07 µM; with MCF7 breast, 3.55 µM; in the assay with BT-549 breast, 3.29 µM; in the assay on PC-3 prostate, 3.75 µM. In addition, the GI50 in the assay with MALME-3M melanoma was 15.2 µM; in the assay with HOP-62 NSCLC it was 5.64 µM; in the assay on HCC-2998 colon, 3.67 µM; with OVCAR-3 ovarian it was 2.77 µM. In addition, the TGI with HOP-92 NSCLC was 24.6 µM; in the assay on UACC-257 melanoma, 29.3 µM; with MOLT-4 leukemia it was 12.2 µM; in the assay with MCF7 breast, 12.9 µM; in the assay on BT-549 breast, 9.57 µM; in the assay on PC-3 prostate it was 20.2 µM. The TGI in the assay on MALME-3M melanoma was 54.4 µM; in the assay on HOP-62 NSCLC, above 100 µM; in the assay with HCC-2998 colon it was 14.2 µM; in the assay with OVCAR-3 ovarian, 6.99 µM.
In the case of `CCCSC1=NC2C(N(CC)C(=O)N2CC)N1/N=C/C=C/c1ccccc1[N+](=O)[O-]` (configuration not stated), the GI50 is 1.27 µM in the assay on HOP-92 NSCLC; 11 µM in the assay on UACC-257 melanoma; 3.36 µM with MOLT-4 leukemia; 2.81 µM with MCF7 breast; 2.6 µM in the assay on BT-549 breast; 3.33 µM with PC-3 prostate. In addition, the GI50 was 4.74 µM with MALME-3M melanoma, 3.79 µM in the assay on HOP-62 NSCLC, 2.57 µM with HCC-2998 colon and 3.11 µM in the assay with OVCAR-3 ovarian. The TGI in the assay on HOP-92 NSCLC was 8.47 µM; with UACC-257 melanoma, above 100 µM; in the assay on MOLT-4 leukemia, above 100 µM; with MCF7 breast, above 100 µM; with BT-549 breast, 8.5 µM; with PC-3 prostate it was above 100 µM. The TGI in the assay with MALME-3M melanoma was above 100 µM; with HOP-62 NSCLC, above 100 µM; in the assay on HCC-2998 colon, 9.27 µM; with OVCAR-3 ovarian, 14.9 µM.

(Values after PubChem BioAssay (NCI).)
